The target in experiment [1] is T1, MOR (Homo sapiens, UniProt P35372).
T1 construct: host or cells: CHO (CHO-hMOR)
As to the kind of experiment: competition radioligand binding, CHO cell membranes expressing human MOR, [3H]DAMGO.

Experiment [2] concerns the target T2, DOR (Homo sapiens, UniProt P41143).
T2 construct: host or cells: CHO (CHO-hDOR)
Kind of experiment: competition radioligand binding, CHO cell membranes expressing human DOR, [3H]diprenorphine.

Experiment [3] addresses T1, MOR. Kind of experiment: [35S]GTPγS binding assay, CHO-hMOR membranes. The experiment is classed as biochemical. Conditions: for EC50: [35S]GTPγS, CHO human MOR membranes, read-out: MOR EC50; for Emax: relative to reference full agonist DAMGO, read-out: MOR % stim. On the technique in general: GTPγS resists hydrolysis and so accumulates on activated G proteins.
Experiment [4] addresses T3, DOR (Rattus norvegicus, UniProt P33533).
T3 construct: Membranes were prepared from Sprague-Dawley rat brains or guinea-pig brains according to the described procedures; tissue Labortierkunde und Laborgenetik, Medizinische Universität Wien; host or cells: Sprague-Dawley rat brain without cerebella
Kind of experiment: competition radioligand binding, rat brain membranes, [3H][Ile5,6]deltorphin II. Conditions: for Ki: rat brain membranes, read-out: opioid receptor binding Ki DOR.

Another experiment deals with T4, KOR (Cavia porcellus, UniProt P41144).
T4 construct: Membranes were prepared from Sprague-Dawley rat brains or guinea-pig brains according to the described procedures; tissue Labortierkunde und Laborgenetik, Medizinische Universität Wien; host or cells: guinea-pig brain without cerebella
Kind of experiment: competition radioligand binding, guinea-pig brain membranes, [3H]U69,593. The following applies: guinea-pig brain membranes; read-out: opioid receptor binding Ki KOR.

The test system of the next experiment is male CD1 mice. Kind of experiment: acetic acid-induced writhing assay after sc administration. The experiment is classed as in vivo, mouse. The following applies: for ED50: Mus musculus, 0.5 h, read-out: ED50 (95% CI), mice, sc, inhibition of writhing 30 min after drug administration.

Where a name gives a salt, the structure may show the parent alone. Read-outs that look alike come from different tables or passages of the source. Where only a bound is given, the exact number is not on record here.

Take `CC[C@H](N[C@H]1CC[C@@]2(OC)[C@H]3Cc4ccc(O)c5c4[C@@]2(CCN3C)[C@H]1O5)C(=O)O` [Compound 19a, (2S)-2-[(4,5α-Epoxy-3-hydroxy-14β-methoxy-17-methylmorphinan-6α-yl)amino]-2-ethylacetic Acid Dihydrochloride]: the Ki (commonly the equilibrium dissociation constant of an inhibitor or competing ligand from its target) amounted to 0.95 ± 0.13 nM on MOR [1], 38 ± 15.4 nM on DOR [2], 37.5 ± 3.4 nM at DOR [4] and 144 ± 7 nM on KOR. The EC50 (usually the midpoint of the concentration-response curve) on MOR [3] was determined as 5.12 ± 0.09 nM. The Emax on MOR [3] worked out at 88 ± 2%. Also, the “decreased DOR affinity vs 6β analogue” value on DOR [4] (rat brain, 18a vs 18b, 19a vs 19b) amounted to 29 times. Moreover, the ED50 with male CD1 mice is below 0.02 mg/kg. Moreover, the “ED50 (95% CI)” value with male CD1 mice (mice, inhibition of writhing 30 min after drug administration) was 17.5 (5.13–59.6) μg/kg.
In the case of `CO[C@@]12CC[C@H](N[C@H](C(=O)N[C@@H](Cc3ccc(O)cc3)C(=O)O)C(C)C)[C@@H]3Oc4c(O)ccc5c4[C@@]31CCN(C)[C@@H]2C5` [Compound 22a, (2S)-2-[[(4,5α-Epoxy-3-hydroxy-14β-methoxy-17-methylmorphinan-6α-yl)amino]-(2S)-3-methylbutyrylamino]-3-(4-hydroxyphenyl)propionic Acid], the inhibitory constant (Ki) worked out at 1.29 ± 0.13 nM on MOR [1] (CHO cell membranes expressing human MOR, read-out: Ki MOR); 1.46 ± 0.59 nM at DOR [2] (CHO cell membranes expressing human DOR, read-out: Ki DOR); 1.19 ± 0.42 nM at DOR [4]; 69 ± 2.5 nM at KOR. At MOR [3], the EC50 is 0.89 ± 0.04 nM. In addition, on MOR [3] (full agonist ≥85% of the response to DAMGO), the “functional profile at MOR (full/partial agonist)” value was “partial agonists”. On MOR [3], the Emax is around 80%. In the experiment on male CD1 mice, the ED50 was 0.178 mg/kg. The “higher antinociceptive potency than morphine” value in the experiment on male CD1 mice (writhing assay, mice) was 2.5 times.

Values taken from PMC6348443 (Journal of Medicinal Chemistry, 2018).
